Laboratory results published in ChEMBL document CHEMBL4393706, “Ursolic acid derivative induces apoptosis in glioma cells through down-regulation of cAMP” (2019).
Active and inactive are the calls of the source. No cut-off for these calls is given here.

How the values were obtained:
U-251 [1] = test: Cell cycle arrest in human U251 cells assessed as accumulation at G0/G1 phase at 4 uM measured after 48 hrs by propidium iodide staining based FACScan flow cytometry (reference value: 29.21 %); assay type: functional
U-251 [2] = test: Antiproliferative activity against human U251 cells measured after 48 hrs by MTT assay; assay type: functional, cell-based
U-251 [3] = test: Induction of morphological changes in human U251 cells assessed as chromatin condensation at 6 to 10 uM measured after 48 hrs by transmission electron microscopy; assay type: functional, cell-based
U-251 [4] = test: Cell cycle arrest in human U251 cells assessed as accumulation at S phase at 8 uM measured after 48 hrs by propidium iodide staining based FACScan flow cytometry (reference value: 16.34 %); assay type: functional
U-251 [5] = test: Cell cycle arrest in human U251 cells assessed as accumulation at G2/M phase at 10 uM measured after 48 hrs by propidium iodide staining based FACScan flow cytometry (reference value: 52.67 %); assay type: functional
U-251 [6] = test: Induction of morphological changes in human U251 cells assessed as appearance of autophagic vacuoles at 6 to 10 uM measured after 48 hrs by transmission electron microscopy; assay type: functional, cell-based
U-251 [7] = test: Antiproliferative activity against human U251 cells assessed as cell proliferation at 8 uM measured after 48 hrs relative to control; assay type: functional; conditions: U-251, 48 h, read-out: Activity
C6 [8] = test: Antiproliferative activity against rat C6 cells assessed as cell proliferation at 10 uM measured after 48 hrs relative to control; assay type: functional; conditions: C6, 48 h, read-out: Activity
U-251 [9] = test: Cell cycle arrest in human U251 cells assessed as accumulation at G2/M phase at 6 uM measured after 48 hrs by propidium iodide staining based FACScan flow cytometry (reference value: 52.67 %); assay type: functional
C6 [10] = test: Antiproliferative activity against rat C6 cells assessed as cell proliferation at 8 uM measured after 48 hrs relative to control; assay type: functional; conditions: C6, 48 h, read-out: Activity
U-251 [11] = test: Cytotoxicity against human U251 cells at 5 uM measured after 48 hrs by MTT assay; assay type: functional, cell-based
U-251 [12] = test: Cell cycle arrest in human U251 cells assessed as accumulation at S phase at 10 uM measured after 48 hrs by propidium iodide staining based FACScan flow cytometry (reference value: 16.34 %); assay type: functional
U-251 [13] = test: Induction of apoptosis in human U251 cells assessed as apoptotic cells at 10 uM measured after 48 hrs by annexin V/FITC-propidium iodide staining-based flow cytometric method relative to control; assay type: functional
C6 [14] = test: Antiproliferative activity against rat C6 cells assessed as cell proliferation at 2 uM measured after 48 hrs relative to control; assay type: functional; conditions: C6, 48 h, read-out: Activity
U-251 [15] = test: Induction of morphological changes in human U251 cells assessed as membrane blebbing at 6 to 10 uM measured after 48 hrs by transmission electron microscopy; assay type: functional, cell-based
U-251 [16] = test: Antiproliferative activity against human U251 cells assessed as reduction in cAMP level at 2 uM measured after 48 hrs by radio-immunoassay; assay type: functional, cell-based
U-251 [17] = test: Induction of apoptosis in human U251 cells assessed as apoptotic cells at 4 uM measured after 48 hrs by annexin V/FITC-propidium iodide staining-based flow cytometric method ( Rvb = 2.34%); assay type: functional
U-251 [18] = test: Antiproliferative activity against human U251 cells assessed as reduction in cAMP level at 6 uM measured after 48 hrs by radio-immunoassay relative to control; assay type: functional; design: scale not given: the % may be the effect or the level left
C6 [19] = test: Antiproliferative activity against rat C6 cells assessed as cell proliferation at 4 uM measured after 48 hrs relative to control; assay type: functional; conditions: C6, 48 h, read-out: Activity
U-251 [20] = test: Induction of apoptosis in human U251 cells assessed as apoptotic cells at 8 uM measured after 48 hrs by annexin V/FITC-propidium iodide staining-based flow cytometric method relative to control; assay type: functional
U-251 [21] = test: Induction of apoptosis in human U251 cells assessed as apoptotic cells at 6 uM measured after 48 hrs by annexin V/FITC-propidium iodide staining-based flow cytometric method relative to control; assay type: functional
U-251 [22] = test: Antiproliferative activity against human U251 cells assessed as reduction in cAMP level at 4 to 10 uM measured after 48 hrs by radio-immunoassay; assay type: functional, cell-based
U-251 [23] = test: Antiproliferative activity against human U251 cells assessed as cell proliferation at 10 uM measured after 48 hrs relative to control; assay type: functional; conditions: U-251, 48 h, read-out: Activity
U-251 [24] = test: Cell cycle arrest in human U251 cells assessed as accumulation at G0/G1 phase at 10 uM measured after 48 hrs by propidium iodide staining based FACScan flow cytometry (reference value: 29.21 %); assay type: functional
U-251 [25] = test: Induction of morphological changes in human U251 cells assessed as inhibtion of cell surface extension at 6 to 10 uM measured after 48 hrs by scanning electron microscopy; assay type: functional, cell-based
U-251 [26] = test: Induction of morphological changes in human U251 cells assessed as appearance of lipid droplets at 10 uM measured after 48 hrs by transmission electron microscopy; assay type: functional, cell-based
U-251 [27] = test: Cell cycle arrest in human U251 cells assessed as accumulation at G0/G1 phase at 8 uM measured after 48 hrs by propidium iodide staining based FACScan flow cytometry (reference value: 29.21 %); assay type: functional
U-251 [28] = test: Antiproliferative activity against human U251 cells assessed as cell proliferation at 6 uM measured after 48 hrs relative to control; assay type: functional; conditions: U-251, 48 h, read-out: Activity
U-251 [29] = test: Antiproliferative activity against human U251 cells assessed as cell proliferation at 2 uM measured after 48 hrs relative to control; assay type: functional; conditions: U-251, 48 h, read-out: Activity
U-251 [30] = test: Cell cycle arrest in human U251 cells assessed as accumulation at G0/G1 phase at 6 uM measured after 48 hrs by propidium iodide staining based FACScan flow cytometry (reference value: 29.21 %); assay type: functional
U-251 [31] = test: Induction of morphological changes in human U251 cells assessed as appearance of foamy cytoplasmic material at 6 to 10 uM measured after 48 hrs by transmission electron microscopy; assay type: functional, cell-based
C6 [32] = test: Antiproliferative activity against rat C6 cells assessed as cell proliferation at 6 uM measured after 48 hrs relative to control; assay type: functional; conditions: C6, 48 h, read-out: Activity
U-251 [33] = test: Induction of morphological changes in human U251 cells assessed as movement of chromatin granules towards periphery of nucleoplasm at 10 uM measured after 48 hrs by transmission electron microscopy; assay type: functional, cell-based
U-251 [34] = test: Antiproliferative activity against human U251 cells assessed as cell proliferation at 4 uM measured after 48 hrs relative to control; assay type: functional; conditions: U-251, 48 h, read-out: Activity
U-251 [35] = test: Induction of apoptosis in human U251 cells assessed as increase in apoptotic cells at 2 uM measured after 48 hrs by annexin V/FITC-propidium iodide staining-based flow cytometric method; assay type: functional, cell-based
U-251 [36] = test: Cell cycle arrest in human U251 cells assessed as accumulation at S phase at 6 uM measured after 48 hrs by propidium iodide staining based FACScan flow cytometry (reference value: 16.34 %); assay type: functional
U-251 [37] = test: Cell cycle arrest in human U251 cells assessed as accumulation at G2/M phase at 8 uM measured after 48 hrs by propidium iodide staining based FACScan flow cytometry (reference value: 52.67 %); assay type: functional
U-251 [38] = test: Induction of morphological changes in human U251 cells assessed as inhibtion of microvilli at 6 to 10 uM measured after 48 hrs by scanning electron microscopy; assay type: functional, cell-based
C6 [39] = test: Antiproliferative activity against rat C6 cells measured after 48 hrs by MTT assay; assay type: functional, cell-based
U-251 [40] = test: Induction of autophagy in human U251 cells assessed as morphological changes at 10 uM measured after 48 hrs by transmission electron microscopy; assay type: functional, cell-based

For `C[C@H]1[C@H](C)CC[C@]2(C(=O)O)CC[C@]3(C)C(=CC[C@@H]4[C@@]5(C)C/C(=C(\c6ccc(O)cc6O)C(c6ccccc6O)c6c[nH]c7ccccc67)C(=O)C(C)(C)[C@@H]5CC[C@]43C)[C@H]12` (stereo not given in full), the Activity (U-251 [1]) was 32.44%, the Activity (U-251 [2]) was “Dose-dependent effect” and the Activity (U-251 [3]) was “Active”. For the same compound, the Activity (U-251 [4]) was 11.78%, the Activity (U-251 [5]) was 35.23% and the Activity (U-251 [6]) was “Active”. It also gave a growth at 8 µM (U-251 [7]) of 39%, a growth at 10 µM (C6 [8]) of 21% and an Activity (U-251 [9]) of 49.26%. For the same compound, the growth at 8 µM (C6 [10]) was 43%, the Activity (U-251 [11]) was “Active” and the Activity (U-251 [12]) was 9.65%. For the same compound, the Activity (U-251 [13]) was 69.32%, the growth at 2 µM (C6 [14]) was 99% and the Activity (U-251 [15]) was “Active”. For the same compound, the Activity (U-251 [16]) was “inactive”, the Activity (U-251 [17]) was 8.56% and the Activity (U-251 [18]) was 50%. The growth at 4 µM (C6 [19]) was 86%, the Activity (U-251 [20]) was 39.78% and the Activity (U-251 [21]) was 21.65%. The Activity (U-251 [22]) was “Active”, the growth at 10 µM (U-251 [23]) was 17% and the Activity (U-251 [24]) was 53.76%. For the same compound, the Activity (U-251 [25]) was “Active”, the Activity (U-251 [26]) was “Active” and the Activity (U-251 [27]) was 41.78%. It also gave a growth at 6 µM (U-251 [28]) of 61%, a growth at 2 µM (U-251 [29]) of 99% and an Activity (U-251 [30]) of 36.16%. For the same compound, the Activity (U-251 [31]) was “Active”, the growth at 6 µM (C6 [32]) was 68% and the Activity (U-251 [33]) was “Active”. For the same compound, the growth at 4 µM (U-251 [34]) was 83%, the Activity (U-251 [35]) was “inactive” and the Activity (U-251 [36]) was 12.51%. For the same compound, the Activity (U-251 [37]) was 42.45%, the Activity (U-251 [38]) was “Active” and the Activity (C6 [39]) was “Dose-dependent effect”. For the same compound, the Activity (U-251 [40]) was “Active”.
